pIC50: −log10 of the molar value.
Assays:
[1] = molecular target: T1, Human cGAS (Homo sapiens, UniProt Q8N884); assay: cGAS biochemical activity assay (ATP levels by Kinase-Glo Max luminescence); conditions: human cGAS amino acids 155-522, 25 nM, activated by 1 μM double stranded DNA, 37° C. for 1.25 hours
T1 construct: hexahistidine tag (N, cleaved yes); made in house; host or cells: E. coli BL21 DE3 Rosetta 2
Method: Human cGAS sequence encoding amino acids 155-522 was cloned into a pET (EMD Millipore) based expression plasmid. The resulting construct contained a tandem N-terminal hexahistidine tag, maltose binding protein fusion followed by a tobacco etch virus protease cleavable linker preceding cGAS amino acids 155-522.
Protein was expressed and purified from E. coli BL21 DE3 Rosetta 2 (EMD Millipore) cells using standard techniques. Cells were grown in 2× yeast extract tryptone medium and expression was initiated via the addition of isopropyl β-D-1-thiogalactopyranoside. Expression proceeded overnight at 18° C. Cells were harvested by centrifugation and subsequently […] via sonication. Insoluble fraction was removed by centrifugation. Maltose binding protein (MBP) fusion proteins were purified on a dextrin sepharose column (GE Healthcare) and the MBP tag was removed using tobacco etch virus protease overnight during dialysis. Protein was further purified on a heparin column (GE Healthcare) and eluted using a NaCl gradient. Column fraction were pooled and further purified on a Superdex 75 gel filtration column (GE Healthcare). Protein was quantified using 280 nm absorbance. Protein was then flash frozen in liquid nitrogen and stored at −80° C., until use.
Potential antagonists were diluted in 100% dimethyl sulfoxide and added to the reaction. Final dimethyl sulfoxide concentration was 5%. The compounds were tested from 250 μM with 5-fold serial dilutions down to 0.000128 μM.
Two complementary DNA oligos (IDT DNA) were annealed by slow cooling from 95° C. The resulting double stranded DNA was used to activate cGAS.
Reactions were performed at 37° C., for 1.25 hours. Reaction buffer: 20 mM Tris HCl pH 9, 100 mM NaCl, 5 mM MgCl2, 0.1 mg/ml bovine gamma globulin, 1 mM adenosine triphosphate, 250 μM guanosine triphosphate, 0.5 mM Tris(2-carboxyethyl)phosphine hydrochloride, 1 μM double stranded DNA and 25 nM purified cGAS protein.
Reactions were stopped and ATP levels in the reaction were measured using a luciferase based assay. Promega Kinase-Glo Max Assay. Luminescence was measured on a plate reader (Molecular Devices). Values were normalized to control wells lacking compound.

[2] = test system: cGAS/STING pathway; assay: THP1 cell-based cGAS/STING pathway activity assay (luciferase reporter linked to IRF-3 activation); conditions: Homo sapiens, THP-1
Excerpt: (§1) A cellular assay can be used to assess the compounds of the invention for their ability to inhibit the cGAS/STING pathway. Cells that express a luciferase-based reporter that is linked to IRF-3 activation are used to determine response as a function of compound concentration. Such an assay is described in Vincent et al., Nature Communications 2017, 8(1):750, doi: 10.1038/s41467-017-00833-9.
as §1, with “10.1038/s41467-017-00833-9. Compounds of the invention were assessed using similar assay methods in a THP1 cell assay to generate IC50 values.” for “10.1038/s41467-017-00833-9.”

T1 sequence (Q8N884 157-522): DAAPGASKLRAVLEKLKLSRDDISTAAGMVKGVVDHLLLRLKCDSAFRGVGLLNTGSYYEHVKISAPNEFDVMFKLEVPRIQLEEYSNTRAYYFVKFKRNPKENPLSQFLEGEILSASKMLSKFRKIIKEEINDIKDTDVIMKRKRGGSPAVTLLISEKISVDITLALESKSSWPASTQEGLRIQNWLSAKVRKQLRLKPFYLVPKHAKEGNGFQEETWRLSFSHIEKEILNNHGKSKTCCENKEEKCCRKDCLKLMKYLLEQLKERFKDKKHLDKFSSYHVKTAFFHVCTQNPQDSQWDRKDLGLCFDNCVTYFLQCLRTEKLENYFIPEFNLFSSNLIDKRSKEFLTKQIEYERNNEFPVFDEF

SMILES | pIC50 [1] | pIC50 [2]
Cc1cc(=O)c2nc(C#N)c(-c3ccccc3)n2[nH]1 [Compound 3, 6-methyl-8-oxo-3-phenyl-5,8-dihydroimidazo[1,2-b]pyridazine-2-carbonitrile] | > 6.00 | –
COc1cccc(-c2c(C)[nH]n3c(-c4ccccc4)c(C#N)nc3c2=O)c1 [Compound 5, 7-(3-methoxyphenyl)-6-methyl-8-oxo-3-phenyl-5,8-dihydroimidazo[1,2-b]pyridazine-2-carbonitrile] | > 6.00 | > 5.00
Cc1[nH]n2c(-c3ccccc3)c(C#N)nc2c(=O)c1-c1cccc(Cl)c1 [Compound 6, 7-(3-chlorophenyl)-6-methyl-8-oxo-3-phenyl-5,8-dihydroimidazo[1,2-b]pyridazine-2-carbonitrile] | > 6.00 | > 5.00
CCc1ccc(-c2c(C)[nH]n3c(-c4ccccc4)c(C#N)nc3c2=O)cc1 [Compound 13, 7-(4-ethylphenyl)-6-methyl-8-oxo-3-phenyl-5,8-dihydroimidazo[1,2-b]pyridazine-2-carbonitrile] | > 6.00 | > 5.00
